The values that follow come from ChEMBL document CHEMBL4811315, “Design, synthesis and biochemical evaluation of novel carbonic anhydrase inhibitors triggered by structural knowledge on hCA VII” (Bioorg Med Chem, 2021).

Each structure is given as a SMILES string.

For this experiment, the target named is Carbonic anhydrase 9 (Homo sapiens, UniProt Q16790).
Description: Inhibition of full length human CA9 incubated for 15 mins by phenol red dye based stopped flow CO2 hydration assay
With `NS(=O)(=O)c1ccc(C(=O)N2CCN(C(=O)c3ccc([N+](=O)[O-])o3)CC2)cc1`, the Ki – broadly, a measure of affinity in units of concentration, obtained from inhibition or displacement – was 976 nM.
In turn, `NS(=O)(=O)c1ccc(C(=O)N2CCN(C(=O)c3ccc(Cl)s3)CC2)cc1` had a Ki of 382 nM.
Next, `Cc1ccoc1C(=O)N1CCN(C(=O)c2ccc(S(N)(=O)=O)cc2)CC1`: 3050 nM; `NS(=O)(=O)c1ccc(C(=O)N2CCN(C(=O)c3cc4ccccc4o3)CC2)cc1`: 2940 nM.
As to `NS(=O)(=O)c1ccc(C(=O)N2CCN(C(=O)c3ccc4ccccc4c3)CC2)cc1`, the Ki was determined as 2990 nM.
With `Cc1ccsc1C(=O)N1CCN(C(=O)c2ccc(S(N)(=O)=O)cc2)CC1` the figure was 2920 nM; with `NS(=O)(=O)c1ccc(C(=O)N2CCN(C(=O)c3sccc3Br)CC2)cc1`, 125 nM; with `NS(=O)(=O)c1ccc(C(=O)N2CCN(C(=O)c3ccc([N+](=O)[O-])s3)CC2)cc1`, 171 nM.
Regarding `NS(=O)(=O)c1ccc(C(=O)N2CCN(C(=O)c3cc4ccccc4s3)CC2)cc1`, the Ki came to 97.9 nM.
With `NS(=O)(=O)c1ccc(C(=O)N2CCN(C(=O)c3ccc[nH]3)CC2)cc1` the figure was 277 nM; with `NS(=O)(=O)c1ccc(C(=O)N2CCN(C(=O)c3ccco3)CC2)cc1`, 3170 nM; with `NS(=O)(=O)c1ccc(C(=O)N2CCN(C(=O)c3cccs3)CC2)cc1`, 3280 nM.
`NS(=O)(=O)c1ccc(C(=O)N2CCN(C(=O)c3cc4ccccc4[nH]3)CC2)cc1` displayed a Ki of 9.2 nM.
